The target of series [1] is T1, Caspase-1 (Homo sapiens, UniProt P29466).
T1 sequence (P29466 whole entry): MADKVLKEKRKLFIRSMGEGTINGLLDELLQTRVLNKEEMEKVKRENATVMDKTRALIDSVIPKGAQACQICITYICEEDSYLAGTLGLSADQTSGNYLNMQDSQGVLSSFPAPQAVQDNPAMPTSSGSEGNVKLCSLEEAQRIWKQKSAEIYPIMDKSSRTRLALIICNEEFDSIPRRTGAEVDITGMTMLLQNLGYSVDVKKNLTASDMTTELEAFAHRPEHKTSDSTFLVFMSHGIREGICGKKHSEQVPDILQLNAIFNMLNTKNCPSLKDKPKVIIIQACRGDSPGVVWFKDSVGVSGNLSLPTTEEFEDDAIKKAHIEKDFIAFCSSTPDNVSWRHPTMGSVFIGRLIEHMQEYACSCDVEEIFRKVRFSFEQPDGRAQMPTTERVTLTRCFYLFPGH
Put plainly: Inhibition of human recombinant caspase1 expressed in Escherichia coli using AC-WEHD-AMC as substrate after 20 mins by fluorescence assay.

In series [2] the target is T1, Caspase-1. Put plainly: Inhibition of caspase1 in human THP1 cells assessed as LPS/ATP-induced IL-1beta release preincubated for 24 hrs in presence of LPS measured after overnight incubation by HTRF assay. The series is classed as cell-based. A general note: TR-FRET usually uses a lanthanide donor and a delayed reading to cut background.
Series [3] in a line: Lipophilicity, log D of the compound at pH 6.5 by chromatographic method. The series is classed as physicochemical. The following applies: buffer.
Series [4] is described as follows: Fraction unbound in human plasma at 5 uM after 4 hrs by LC-MS/MS-based equilibrium dialysis method. The series is classed as ADME, cell-free. (In general: Equilibrium dialysis compares concentrations on both sides of a semipermeable membrane.)

Results on three compounds are retold here after ChEMBL document CHEMBL4184170, “New Caspase-1 inhibitor by scaffold hopping into bio-inspired 3D-fragment space” (Bioorg Med Chem Lett, 2017).

Molecules are shown by their SMILES.

As usually defined, the IC50 is the concentration that inhibits the measured activity by half. What is called chromatographic logD is a lipophilicity value derived from retention on a column. What is called fraction unbound is free concentration divided by total concentration. The low end stands for little free substance, the high end for much free substance.

For `O=C1C[C@H](NC(=O)[C@@H]2CC[C@@H]3CCCC[C@H](NC(=O)c4nccc5ccccc45)C(=O)N32)C(O)O1` (stereo partly specified), at Caspase-1 [1], the half-maximal inhibitory concentration (IC50) turned out to be 11 nM.

Turning to `CC(C)(C)[C@H](NC(=O)c1ccc(N)c(Cl)c1)C(=O)N1CCC[C@H]1C(=O)N[C@H]1CC(=O)OC1O` (stereo partly specified), the 50% inhibitory concentration (IC50) on Caspase-1 [1] is 5 nM.

On to `CC(C)[C@H](NC(=O)c1ccc2ccccc2c1)C(=O)N1[C@H]2CC[C@](O)(CC2)[C@H]1C(=O)N[C@H]1CC(=O)OC1O` (stereo partly specified), for which the IC50 was 86 nM on Caspase-1 [2] and 17 nM on Caspase-1 [1]. Besides, in series [3], the chromatographic logD was determined as 2.1. Also, the unbound share (fraction unbound) at 4 h, 5 µM in series [4] came to 0.12.
